Tests used:
[1] = Cytotoxicity, alamarBlue viability, HuH28 cells; assay type: cell-based; conditions: human
Experimental: (§1) NMH cells or HuH28 cells (1 × 10^4/well) of 100 μl aliquots were seeded on a 96-well black plate. Test samples were added and incubated for 72 h. NP-40 was added as a positive control (100% cytotoxicity) and a solvent in which the samples were dissolved as a negative control (0% cytotoxicity). Then 10 μl of alamarBlue reagent (10%, Funakoshi Co., Tokyo, Japan) for mitochondria staining was added and incubated for another 4 h. The fluorescence intensity (544 nm/590 nm) was measured with a plate reader (measurement time: 0.1 s).
(§2) The concentration required to reduce cell viability by 50% (CC50) was calculated using the following equation: CC50=10^logA/B×50-C/D-C+logB, where A is the lowest concentration at which the cell viability exceeds 50%, B is the highest concentration at which cell viability is less than 50%, and C and D are the cell viability of the sample at concentrations B and A, respectively.

[2] = target: T. cruzi Trypo + Ama (Luc2-Tulahuen); assay: In vitro anti-T. cruzi (trypomastigotes and amastigotes) mixture culture luciferase assay; assay type: cell-based, Trypanosoma cruzi; conditions: for IC50 / inhibition at 20 µM: Trypanosoma cruzi, TULAHUEN; for IC50: trypomastigotes mixed with NMH cells, 72 h; for reduction of parasite signals (inhibition in the T. cruzi mixture culture): first screen, compounds 20 μM (Fig. 1); for inhibition at 20 µM: read-out: reduction of parasite signals (inhibition in the T. cruzi mixture culture)
Experimental: Luc2-Tulahuen trypomastigotes (3 × 10^4/well) and NMH cells (5 × 10^4/well) were mixed into a 96-well white plate. Test samples and controls were added and incubated with the cells for 72 h. NP-40 (Wako Pure Chemicals Industrial Ltd, Japan) was used as the positive control, and a solvent in which the drug was dissolved as a negative. After 72 h of incubation, 100 μl of luciferin solution containing 0.6% NP-40 (Piccagene) (Toyo Ink Group, Japan) was added. Luminescence intensity was measured by a plate reader (ARVO MX 1420) (Measurement time: 1 s).
(§3) The IC50 was calculated using the following equation: IC50=10^logA/B×50-C/D-C+logB, where A is the lowest concentration at which the percentage inhibition exceeds 50%, B is the highest concentration at which percentage inhibition is less than 50%, and C and D are the percentage inhibition of the sample at concentrations B and A, respectively.

[3] = test system: T. cruzi Intracell Ama (Luc2-Tulahuen); assay: In vitro anti-T. cruzi (intracellular amastigotes) luciferase assay in NMH cells; assay type: cell-based, Trypanosoma cruzi; conditions: for loss of luminescence intensity in IC50 curve, in words: NMH cells with amastigotes (Supplement Figure 2); for IC50: Trypanosoma cruzi, TULAHUEN, infected NMH cells, 72 h
Experimental: The intracellular amastigotes assay was described by Alonso-Padilla et al.. Briefly, 6 × 10^6 trypomastigotes and 3 × 10^6 host cells (NMH cells) are seeded in a 25 cm^2 flask in serum-free media (MEM + 1% newborn calf serum) to enhance the intracellular infection. After 24 h incubation, the cells were washed twice with phosphate buffered saline (PBS), then replaced by MEM + 10% newborn calf serum and incubated for another 24 h. Infected cells were detached by trypsinization. Infected host fibroblast cells (5 × 10^4/well) were seeded into a 96-well plate. Test samples and the controls were added to the mixture and incubated for 72 h. Luminescence intensity was measured by a plate reader and the Piccagene (Measurement time: 1 s).
as §3

[4] = Cytotoxicity, alamarBlue viability, NMH cells; assay type: cell-based, mouse; conditions: mouse
Experimental: as §1, §2

[5] = test system: T. cruzi Epi (Luc2-Tulahuen epimastigotes); assay: In vitro assay for anti-epimastigote form of T. cruzi activity (luciferase); assay type: cell-based, Trypanosoma cruzi; conditions: for IC50: Trypanosoma cruzi, TULAHUEN, epimastigotes, 72 h
Experimental: Luc2-Tulahuen epimastigotes (2 × 10^5/well) were dispensed into 96-well plate. After 72 h incubation, luminescence intensity was measured by adding lysis buffer with luciferin as substrate (PicaGene Luminescence Kit, Fuji Film Wako chemicals, Japan) (Measurement time: 1 s).
as §3

[6] = test system: NMH cells (newborn mouse heart fibroblast cells); assay: Cytotoxicity, alamarBlue viability, NMH cells; assay type: cell-based
Experimental: as §1, §2

[7] = test system: DHODH in Plasmodium falciparum; design: method as in PMID 29582555; conditions: cited from earlier work
[8] = test system: T. cruzi (Luc2-Tulahuen trypomastigotes); assay: Murine acute infection model with live bioluminescence imaging; assay type: in vivo, BALB/c mice; conditions: for luminescence intensity / parasiticidal activity compared with benznidazole group: 30 mg/kg bid i.p. vs benznidazole 100 mg/kg p.o., day 4 to 8
Experimental: Mice were housed and maintained in Nagasaki University Biomedical Research Center (12 h light/dark cycle). Female BALB/c mice from 6 to 10 weeks old (20–25 g) were used in all the experiments. Mice were obtained as wild type from SLC (Japan). In standard experiments, 5 × 10^3 in vitro tissue culture-derived trypomastigotes (TCTs) was intra-peritoneally (i.p.) inoculated into mouse. The mice were handled according to the international guidelines and institutional guideline of Nagasaki University for the use and maintenance of experimental animals. Ethical approval for this study was obtained from the institutional ethical review board, Nagasaki University (approval number R12005).
Mice were intra-peritoneally injected with 150 mg/kg d-luciferin (SYD labs, USA), then anesthetized using 2.5% (vol/vol) gaseous isoflurane in oxygen. To measure bioluminescence, mice were placed in an IVIS Lumina II system (Caliper Life Science, USA) and images were acquired 10 min after d-luciferin administration using LivingImage 4.3 (Caliper Life Sciences, USA). Exposure time was fixed as 5 min. Anesthesia was maintained throughout the imaging process through the nose cone. Whole body luminescence was determined by drawing the region of interest (ROI) and quantifying the bioluminescence expressed as total flux (photons/second; p/s). Coptisine chloride was administered intra-peritoneally (i.p.) at a dose of 30 mg/kg twice a day. Benznidazole (100 mg/kg) as a positive control and the drug solvent as a negative control were administered orally (p.o.) once a day. Drug was administered for 5 consecutive days from day 4 to 8 of infection. Measurements with IVIS Lumina II were performed at five different times: on day 3 of infection (the day before drug treatment), on day 9 of infection (the day after drug treatment was completed), on day 14, 28 and 40 of infection. To maintain fairness, different experimenters performed drug treatments and luminescence intensity measurements. At day 29, BALB/c mice were injected with cyclophosphamide (Sigma-Aldrich, USA) (200 mg/kg) as an immunosuppressant by i.p. and were followed by a maximum of 3 doses at 3 day intervals. The use of immunosuppressant like cyclophosphamide could help enhance the visibility of the infected lesions even after 100 dpi. In this animal study, treatment was given when the luminescence intensity was high. In addition, an immunosuppressant was administered when the difference in luminescence intensity among the three groups became small due to natural immunity of the mice.

[9] = in vivo; cited from earlier work
[10] = test system: mouse fibroblast cells (NMH) and human bile duct carcinoma cell line (HuH28); assay: Cytotoxicity screen of Kampo library on host cells (alamarBlue); assay type: cell-based; conditions: compounds 20 μM (Fig. 2)
Source text: Data are presented as percent reduction in intensity, indicating cell viability. Experiments were done in triplicates

human DHODH = test system: human DHODH; design: method as in PMID 29582555; conditions: cited from earlier work
[11] = HuH28 cells (human bile duct carcinoma cell line), 72 h, read-out: CC50, HuH28, AlamarBlue viability
[12] = NMH cells (newborn mouse heart fibroblast cells), 72 h, read-out: CC50, NMH, AlamarBlue viability

c1cc2c(c3c1CC1c4cc5c(cc4CCN1C3)OCO5)OCO2 (racemic) [dl-Tetrahydro coptisine]
CC50 at 72 h [1, 11]: > 100 µM
loss of luminescence intensity in IC50 curve, in words ([2]; NMH cells and trypomastigotes (Supplement Figure 1)): No loss of intensity
IC50 [2]: > 40 µM
loss of luminescence intensity in IC50 curve, in words [3]: No loss of intensity
IC50 [3]: > 40 µM
CC50 at 72 h [4, 12]: > 40 µM

CC(C)=CC[C@H](O)C1=CC(=O)c2c(O)ccc(O)c2C1=O [Alkanin]
reduction of parasite signals (inhibition in the T. cruzi mixture culture) [2]: more than 80%

O=C(Cn1ccnc1[N+](=O)[O-])NCc1ccccc1 [Benznidazole, reference compound]
CC50 at 72 h [1]: > 100 µM
IC50 [2]: 2.78 µM
IC50 [3]: 4.91 µM
CC50 at 72 h [4]: > 40 µM
IC50 [5]: 3.78 µM

COc1ccc2cc3[n+](cc2c1OC)CCc1cc2c(cc1-3)OCO2.[Cl-] [Berberin chloride]
reduction of parasite signals (inhibition in the T. cruzi mixture culture) [2]: more than 80%

COc1ccc2cc3[n+](cc2c1O)CCc1cc2c(cc1-3)OCO2 [Berberrubine chloride]
CC50 at 72 h [1]: > 100 µM
IC50 [2]: 20.1 µM
IC50 [3]: 33.5 µM
CC50 at 72 h [4]: > 40 µM
cytotoxic effect against normal NMH cells, in words [6]: slight cytotoxic effect

c1c2c(cc3c1OCO3)-c1cc3ccc4c(c3c[n+]1CC2)OCO4 [Coptisine chloride]
CC50 at 72 h [1, 11]: > 100 µM
inhibition of DHODH in Plasmodium falciparum, in words [7]: non-competitively inhibits
relapse detected on day 40 after immunosuppressant ([8]; 30 mg/kg bid i.p. day 4 to 8, compared with benznidazole 100 mg/kg p.o.): smaller than that in the benznidazole treatment group
luminescence intensity after immune suppression treatment compared with control group ([8]; 30 mg/kg bid i.p. day 4 to 8, day 40, after cyclophosphamide): significantly reduced
luminescence intensity / parasiticidal activity compared with benznidazole group ([8]; listed as coptisine): equivalent parasiticidal activity
luminescence intensity / parasiticidal activity compared with benznidazole group ([8]; listed as coptisine chloride): slightly higher than that of the benznidazole group
luminescence intensity of treated group compared with untreated group ([8]; 30 mg/kg bid i.p., day 4 to 8 of infection, after 5-day treatment): significantly reduced
adverse events during in vivo experiment ([8]; BALB/c mice, 30 mg/kg bid i.p.): did not see any significant adverse events
inhibition at 20 µM [2]: > 80%
IC50 [2]: 4.48 µM
oral bioavailability, in words [9]: low
IC50 [3]: 4.98 µM
cytotoxic effect on host cells, in words [10]: relatively lower cytotoxicity
CC50 at 72 h [4, 12]: > 40 µM
inhibitory activity against human DHODH, in words (human DHODH): weak inhibitory activity
IC50 [5]: 15.1 µM
effectiveness against epimastigotes relative to benznidazole ([5]; from IC50 15.1 µM vs 3.78 µM): fourfold less effective

COc1cc2c(cc1OC)-c1c(C)c3ccc(OC)c(OC)c3c[n+]1CC2 [Dehydrocorydaline nitrate]
CC50 at 72 h [1]: > 100 µM
inhibition at 20 µM [2]: > 80%
IC50 [2]: 3.47 µM
IC50 [3]: 7.89 µM
cytotoxic effect on host cells, in words [10]: relatively lower cytotoxicity
CC50 at 72 h [4]: > 40 µM
IC50 [5]: 17.3 µM

COc1cc2c(cc1OC)-c1cc3ccc4c(c3c[n+]1CC2)OCO4 [Epiberberine chloride]
CC50 at 72 h [1]: > 100 µM
IC50 [2]: > 40 µM
loss of luminescence intensity in IC50 curve, in words [3]: No loss of intensity
IC50 [3]: > 40 µM
CC50 at 72 h [4]: > 40 µM

COc1cc2c(cc1OC)-c1cc3ccc(OC)c(OC)c3c[n+]1CC2 [Palmatine chloride]
CC50 at 72 h [1, 11]: > 100 µM
inhibition at 20 µM [2]: > 80%
IC50 [2]: 2.66 µM
IC50 [3]: 17.4 µM
cytotoxic effect on host cells, in words [10]: relatively lower cytotoxicity
CC50 at 72 h [4, 12]: > 40 µM
IC50 [5]: 22.3 µM

CC(C)=CC[C@@H](O)C1=CC(=O)c2c(O)ccc(O)c2C1=O [Shikonin]
inhibition at 20 µM [2]: > 80%

C[C@H]1CC[C@@]2(OC1)O[C@H]1C[C@H]3[C@@H]4CC[C@@H]5C[C@@H](O[C@@H]6O[C@H](CO)[C@H](O)[C@H](O)[C@H]6O[C@@H]6O[C@H](CO)[C@@H](O)[C@H](O)[C@H]6O)CC[C@]5(C)[C@H]4CC[C@]3(C)[C@H]1[C@@H]2C [Timosaponin A-III]
inhibition at 20 µM [2]: > 80%
